From PMC5515859, “Metabolism of F18, a Derivative of Calanolide A, in Human Liver Microsomes and Cytosol” (Frontiers in Pharmacology, 2017)
Where two headings read alike, the source gives them in different places.

Experiments:
[1] = tested on: CYP1A2; conditions: cited from earlier work
[2] = tested on: CYP3A4/5; conditions: cited from earlier work
[3] = tested on: CYPs and FMOs in HLMs; test: Microsomal incubations of F18 with chemical inhibitors of CYPs or thermal inactivation of FMOs
Procedure: (§1) The contributions of CYPs and FMOs to the metabolism of F18 were investigated by chemical inhibition and thermal inactivation, respectively. […] Briefly, F18 (10 μM) was incubated with HLMs (0.5 mg protein/mL) and an NADPH-generating system in the absence and presence of CYP inhibitors at 37°C for 30 min, and the reaction was terminated with two volumes of ice-cold acetonitrile. […] In brief, HLMs (0.5 mg protein/mL) were preheated at 50°C for 5 min and then immersed in an ice-cold bath. After the addition of F18 (10 μM) and equilibration for 3 min at 37°C, the reaction was started by the addition of the NADPH-generating system. After a 30-min incubation, the reactions were terminated as described above. […] The formation of the major metabolites M1, M2-9, M3-1, M3-2, M5-2, M5-3, M5-4, and M5-5 was analyzed by LC-MS/MS.
(§2) The amounts of F18, M1, M2-9, M3-1, M3-2, M5-2, M5-3, M5-4, and M5-5 in the incubations were simultaneously quantified with the LC-MS/MS system. […] The sheath gas, auxiliary gas, spray voltage and tube lens parameters were the same as those for the metabolic profiling studies.

[4] = tested on: CYP2E1; conditions: cited from earlier work
[5] = tested on: carbonyl reductases in HLM; test: Inhibition of carbonyl reduction of F18 (formation of M3-1 and M3-2) by chemical inhibitors in HLM; format: in vitro ADME, human; conditions: NADPH, F18 10 μM, 30 min
Procedure: F18 (10 μM) was incubated with HLMs (0.5 mg/mL) and the NADPH-generating system for 30 min or with HLcy and a cofactor (NADPH or NADH) for 10 min in the presence of chemical inhibitors under the above-described conditions. Control incubations using the vehicles but not the chemical inhibitors were also performed. The formation of M3-1 and M3-2 was quantified by LC-MS/MS.
as §2

[6] = tested on: CYP2D6; conditions: cited from earlier work
[7] = tested on: VSV-G/HIV-1 viruses; test: microbe, parasite or virus in culture; format: cell-based; conditions: Human immunodeficiency virus 1, HEK-293T, 48 h, read-out: IC50, inhibition of HIV-1 replication
[8] = tested on: CYP2C19; design: method as in unpublished data; conditions: previous study; ref unpublished data; cited from earlier work
[9] = tested on: HIV-1; conditions: ref Xue et al., 2010, cited from earlier work
[10] = molecular target: T1, recombinant CYP3A4 (Homo sapiens, UniProt P08684); test: Metabolism of F18 by cDNA-expressed CYP3A4; format: in vitro ADME; conditions: F18 10 μM, 50 pmol/mL enzyme, 1 h; among 14 CYP isoforms
T1 construct: purchased BD Gentest (Woburn, MA, USA)
Procedure: To further verify the roles of CYPs and FMOs in the metabolism of F18 in humans, F18 (10 μM) was incubated individually with 14 cDNA-expressed human CYP isozymes (50-pmol/mL CYP1A1, CYP1A2, CYP2A6, CYP2B6, CYP2C8, CYP2C9, CYP2C19, CYP2D6, CYP2E1, CYP2J2, CYP3A4, CYP4F2, CYP4F3, and CYP4A11) and three cDNA-expressed FMO enzymes (50-pmol/mL FMO1, FMO3, and FMO5). The incubation conditions were similar to those used for HLMs (described above), with the exception of the incubating time […]. Samples incubated without NADPH were used as the negative control.

[11] = Pharmacokinetics in rats after oral administration of F18; format: in vivo, Sprague-Dawley rats; conditions: rat blood, oral F18 50 mg/kg, mean ± SD, n = 5
Procedure: To investigate the pharmacokinetic characteristics of F18 and its major metabolites, five rats were intragastrically administered F18 at a dose of 50 mg/kg. Blood samples were collected in heparinized ice-bath tubes from the suborbital veniplex at 0, 0.25, 0.5, 1, 2, 4, 6, 8, 12, 16, and 24 h postdose. The blood concentrations of F18 and its major metabolites were determined by LC-MS/MS and their pharmacokinetic parameters were calculated through non-compartmental analysis using WinNonlin Version 6.1 (Pharsight, Mountain View, CA, USA).
For the blood samples, F18, M1, M3-1, and M3-2 were simultaneously quantified using the following elution gradient: Solvent B was maintained at 15% for 2 min, increased to 85% in 1 min, maintained at 85% for 5 min, decreased to 15% in 0.5 min and maintained at 15% for 4.5 min. Detection was also performed using a Finnigan TSQ Quantum MS instrument with an electrospray ionization probe operated in the positive mode.
Calibration curves for F18 and its metabolites were fitted via linearly weighted (1/x^2) least-squares regression. The correlation coefficient values of F18 and its metabolites in the incubations were >0.99 for the range 10–5,000 nM; the LOQ was 10 nM with a signal-to-noise ratio >10:1; the accuracies were 90–113% and the precisions (RSD) were <10.5%. In the blood samples, the correlation coefficient values for F18, M1, M3-1, and M3-2 were >0.99 for the range 5–2,000 nM; the LOQ was 5 nM with the signal-to-noise ratio >10:1; the accuracies were 91–112% and the precisions (RSD) were <9.6%. In addition, no interference was found in the retention time of each analyte in both the incubated samples and the blood samples.

[12] = tested on: CYP2C9; design: method as in unpublished data; conditions: previous study; ref unpublished data; cited from earlier work
[13] = tested on: CYP3A4; design: method as in unpublished data; conditions: previous study; ref unpublished data; cited from earlier work
[14] = tested on: Y181C single mutation of HIV-1; conditions: ref Xue et al., 2010; cited from earlier work
[15] = tested on: CYP1A2; design: method as in unpublished data; conditions: previous study; ref unpublished data; cited from earlier work
[16] = tested on: CYP3A4; test: Microsomal incubations of F18 with chemical inhibitors of CYPs or thermal inactivation of FMOs; conditions: human, human liver microsomes
Procedure: as §1, §2

[17] = tested on: CYP2C19; conditions: cited from earlier work
[18] = design: method as in Creagh et al., 2001; Eiznhamer et al., 2002; conditions: ref Creagh et al., 2001; Eiznhamer et al., 2002; cited from earlier work
[19] = high concentration: 18β-glycyrrhetinic acid 0.5 μM, 2-CEE 5 mM
[20] = low concentration: 18β-glycyrrhetinic acid 0.1 μM, 2-CEE 1 mM
[21] = HLMs preheated at 50°C for 5 min, F18 10 μM

T1 sequence (P08684 whole entry, canonical isoform): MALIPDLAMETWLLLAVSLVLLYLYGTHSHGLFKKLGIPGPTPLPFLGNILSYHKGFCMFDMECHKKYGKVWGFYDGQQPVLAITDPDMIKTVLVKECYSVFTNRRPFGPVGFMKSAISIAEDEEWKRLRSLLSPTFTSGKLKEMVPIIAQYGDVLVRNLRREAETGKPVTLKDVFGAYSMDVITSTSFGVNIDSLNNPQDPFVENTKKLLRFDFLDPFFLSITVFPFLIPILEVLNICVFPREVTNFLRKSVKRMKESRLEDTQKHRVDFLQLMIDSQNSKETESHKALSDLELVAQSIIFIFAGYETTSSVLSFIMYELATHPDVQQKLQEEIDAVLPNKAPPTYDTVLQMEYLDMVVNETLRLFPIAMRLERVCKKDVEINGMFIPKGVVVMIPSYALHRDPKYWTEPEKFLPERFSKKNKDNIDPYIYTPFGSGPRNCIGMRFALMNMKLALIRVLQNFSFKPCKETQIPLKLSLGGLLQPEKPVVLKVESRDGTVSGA

## Cc1ncc2n1-c1ccc(Cl)cc1C(c1ccccc1F)=NC2 [midazolam]
[2]
  Km: 1 to 14 µM
[3]
  Metabolism of probe substrate after thermal inactivation of HLMs: unchanged

## Cc1ncsc1CCCl [Clomethiazole]
[4]
  Ki: 12000 nM

## CC1(C)[C@@H](O)CC[C@]2(C)[C@H]3C(=O)C=C4[C@@H]5C[C@@](C)(C(=O)O)CC[C@]5(C)CC[C@@]4(C)[C@]3(C)CC[C@@H]12 [18β-Glycyrrhetinic, 18β-glycyrrhetinic acid]
[5]; [19]
  Percentage of inhibition of the formation of M3-1, H: 13.7%
  Percentage of inhibition of the formation of M3-2, H: 67.5%
[5]; [20]
  Percentage of inhibition of the formation of M3-1, L: 1.2%
  Percentage of inhibition of the formation of M3-2, L: 51.4%

## C=CCSSCC=C [diallyldisulfide]
[4]
  Ki: 150000 nM

## COc1ccc2c(c1)[C@]13CCCC[C@@H]1[C@H](C2)N(C)CC3 [dextromethorphan]
[6]
  Km: 0.44 to 8.5 µM

## CCOc1ccc(NC(C)=O)cc1 [Phenacetin]
[1]; read-out: substrate Km, CYP1A2, metabolite Acetaminophen, ref FDA Drug Development and Drug Interactions
  Km: 1.7 to 152 µM

## CCCc1cc(=O)oc2c3c(c4c(c12)OC(C)(C)C=C4)OC(CCl)CC3=O (centres unmarked) [Metabolite F18, 10-Chloromethyl-11-demethyl-12-oxo-calanolide A]
[7]
  IC50: 190 nM
[3]; [21]
  Formation of M3-1 after thermal inactivation of FMOs: significantly inhibited
  Reduction in M1 formation by thermal inactivation of FMOs: 64%
[8]
  Effect on CYP2C19: potent inhibitory effects
[9]
  therapeutic (index): 1417
[9]; read-out: half-maximal effective concentration (EC50)
  EC50: 7.4 nM
[10]
  Metabolic activity of recombinant CYP3A4 for the formation of M1, M2-9, M5-2, M5-3, M5-4, and M5-5: highest metabolic activity
[11]; Sprague-Dawley
  Cmax: 443 ± 107 nM
  Tmax: 3.3 ± 2.2 h
  half-life: 5.3 ± 2.8 h
[11]; Sprague-Dawley, read-out: MRT0−t
  MRT last: 7.8 ± 1 h
[11]; Sprague-Dawley, read-out: MRT0−∞
  MRT inf: 10 ± 2.4 h
[11]; 50 mg/kg
  AUC0−∞: 5,166 h^*nM
[12]
  Effect on CYP2C9: potent inhibitory effects
[13]
  Effect on CYP3A4: activation-inducing effect
[14]
  Potency against Y181C mutant HIV-1 (in words): extremely high potency
[15]
  Effect on CYP1A2: potent inhibitory effects

## CC(=O)N1CCN(c2ccc(OCC3COC(Cn4ccnc4)(c4ccc(Cl)cc4Cl)O3)cc2)CC1 (centres unmarked) [ketoconazole]
[2]
  Ki: 3.7 to 180 nM
[16]
  inhibition at 30 min, 1 μM: > 80%
[16]; probe F18 (10 μM), formation of metabolite M1
  inhibition at 30 min, 1 μM: 20 to 30%

## C=C(C)[C@@H]1CCC2=CC(=O)C[C@@H](C)[C@]2(C)C1 [nootkatone]
[17]
  Ki: 500 nM

## CCCc1cc(=O)oc2c3c(c4c(c12)OC(C)(C)C=C4)O[C@H](C)[C@@H](C)[C@@H]3O [calanolide A, Calanolide A]
[18]
  Tolerability in Phase I studies: well tolerated

## O=c1cc(-c2ccccc2)oc2c1ccc1ccccc12 [α-naphthoflavone]
[1]; read-out: inhibitor Ki, CYP1A2, ref FDA Drug Development and Drug Interactions
  Ki: […]
